Target: GSK 3α (Homo sapiens (Human), UniProt P49840)
Assay: GSK 3α enzyme inhibition (FRET, Z-LYTE; Method 2)
Format: biochemical
Settings: read-out: IC50 Values for Enzyme Inhibition GSK3α
Description: The enzyme inhibitory activities of compounds disclosed herein are determined by FRET using synthetic peptides labelled with both donor and acceptor fluorophores (Z-LYTE, Invitrogen Ltd., Paisley, UK).
The inhibitory activities of compounds of the invention against the GSK 3α enzyme isoform (Invitrogen), are evaluated by determining the level of activation I phosphorylation of the target peptide. The GSK3-α protein (500 ng/mL, 2.5 μL) is mixed with the test compound (2.5 μL at either 4 μg/mL, 0.4 μg/mL, 0.04 μg/mL, or 0.004 μg/mL) for 2 hr at RT. The FRET peptide (8 μM, 2.5 μL), which is a phosphorylation target for GSK3α, and ATP (40 μM, 2.5 μL) are then added to the enzyme\compound mixture and the resulting mixture incubated for 1 hr. Development reagent (protease, 5 μL) is added for 1 hr prior to detection in a fluorescence microplate reader (Varioskan® Flash, ThermoFisher Scientific).
In all cases, the site-specific protease cleaves non-phosphorylated peptide only and eliminates the FRET signal. Phosphorylation levels of each reaction are calculated using the ratio of coumarin emission (donor) over fluorescein emission (acceptor), for which high ratios indicate high phosphorylation and low ratios indicate low phosphorylation levels.
This method follows the same steps as Method 1 above, but utilises a shorter period of mixing of the test compound (105 minutes instead of 2 hours) with the GSK3-α protein. In addition, the concentrations of test compound employed are either 10 μg/mL, 1 μg/mL, 0.1 μg/mL, or 0.01 μg/mL

Sequence of GSK 3α (P49840 whole entry): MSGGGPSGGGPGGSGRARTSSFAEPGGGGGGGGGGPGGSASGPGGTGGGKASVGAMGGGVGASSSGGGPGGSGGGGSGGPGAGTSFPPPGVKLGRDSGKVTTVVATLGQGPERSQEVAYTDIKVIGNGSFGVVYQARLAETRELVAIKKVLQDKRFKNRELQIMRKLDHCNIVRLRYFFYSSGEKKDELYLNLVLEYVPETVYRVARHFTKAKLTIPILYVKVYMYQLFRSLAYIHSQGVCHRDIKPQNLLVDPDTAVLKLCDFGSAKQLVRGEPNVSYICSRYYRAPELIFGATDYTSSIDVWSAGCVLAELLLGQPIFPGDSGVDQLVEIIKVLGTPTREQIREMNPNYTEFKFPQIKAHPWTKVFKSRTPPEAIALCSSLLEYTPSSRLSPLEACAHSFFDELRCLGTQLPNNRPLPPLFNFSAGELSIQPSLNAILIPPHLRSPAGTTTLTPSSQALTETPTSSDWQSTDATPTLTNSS

| SMILES | IC50 [nM] |
| --- | --- |
| CCNC(=O)c1cc(C(C)(C)C)cc(NC(=O)Nc2ccc(Oc3ccnc(Nc4cc(OC)cc(OCCOCCOCCOC)c4)n3)c3ccccc23)c1OC [Example 41, 5-(tert-Butyl)-N-ethyl-2-methoxy-3-(3-(4-((2-((3-methoxy-5-(2-(2-(2-methoxyethoxy)-ethoxy)ethoxy)phenyl)amino)pyrimidin-4-yl)oxy)naphthalen-1-yl)ureido)benzamide] | 446 |
| COCCOCCOCCOc1cc(Nc2nccc(Oc3ccc(NC(=O)Nc4cc(C(C)(C)C)ccc4OC)c4ccccc34)n2)cc(OC)c1 [Example 8, 1-(5-(tert-Butyl)-2-methoxhenv)-3-(4-((2-((3-methoxy-5-(2-(2-(2-methoxyethoxy)ethoxy)-ethoxy)phenyl)amino)pyrimidin-4-yl)oxy)naphthalen-1-yl)urea] | 9940 |
| COCCOCCOCCOc1cc(Nc2nccc(Oc3ccc(NC(=O)Nc4cc(C(C)(C)C)cc(NS(=O)(=O)N5CCCCC5)c4OC)c4ccccc34)n2)cc(OC)c1 [Example 73, N-(5-(tert-Butyl)-2-methoxy-3-(3-(4-((2-((3-methoxy-5-(2-(2-(2-methoxyethoxy)ethoxy)-ethoxy)phenyl)amino)pyrimidin-4-yl)oxy)naphthalen-1-yl)ureido)phenyl)piperidine-1-sulfonamide] | 11300 |
| COCCOCCOCCOc1cc(Nc2nccc(Oc3ccc(NC(=O)Nc4cc(C(C)(C)C)cc(Nc5ncccn5)c4OC)c4ccccc34)n2)cc(OC)c1 [Example 28, 1-(5-(tert-Butyl)-2-methoxy-3-(pyrimidin-2-ylamino)phenyl)-3-(4-((2-((3-methoxy-5-(2-(2-(2-methoxyethoxy)ethoxy)ethoxy)phenyl)amino)pyrimidin-4-yl)oxy)naphthalen-1-yl)urea] | 3210 |
| CNC(=O)c1cc(N2CCOCC2)cc(NC(=O)Nc2ccc(Oc3ccnc(Nc4cc(OC)cc(OCCOCCOCCOC)c4)n3)c3ccccc23)c1OC [Example 32, 2-Methoxy-3-(3-(4-((2-((3-methoxy-5(2-(2-(2-methoxyethoxy)ethoxy)ethoxy)phenyl)-amino)pyrimidin-4-yl)oxy)naphthalen-1-yl)ureido)-N-methyl-5-morpholinobenzamide] | 629 |
| COc1cc(CO)cc(Nc2cc(Oc3ccc(NC(=O)Nc4cc(C(C)(C)C)cc(NS(C)(=O)=O)c4OC)c4ccccc34)ccn2)c1 [84(f), 1-[5-tert-Butyl-3-(methanesulfonamido)-2-methoxyphenyl]-3-[4-[[2-[3-(hydroxymethyl)-5-methoxyanilino]-4-pyridyl]oxy]-1-naphthyl]urea] | 3400 |
| COc1c(NC(=O)Nc2ccc(Oc3ccnc(Nc4ccccc4)c3)c3ccccc23)cc(C(C)(C)C)cc1C(=O)N[C@@H]1CCOC1 [84(c), 3-[[4-[(2-Anilino-4-pyridyl)oxy]-1-naphthyl]carbamoylamino]-5-tert-butyl-2-methoxy-N-[(3R)-tetrahydrofuran-3-yl]benzamide] | 4950 |
| COCCOCCOCCOc1cc(Nc2nccc(Oc3ccc(NC(=O)Nc4cc(C(C)(C)C)cc(C(=O)O)c4OC)c4ccccc34)n2)cc(OC)c1 [Example 21, 5-(tert-Butyl)-2-methoxy-3-(3-(4-((2-((3-methoxy-5-(2-(2-(2-methoxyethoxy)ethoxy)-ethoxy)phenyl)amino)pyrimidin-4-yl)oxy)naphthalen-1-yl)ureido)benzoic acid] | 1630 |
| COc1cc(Nc2nccc(Oc3ccc(NC(=O)Nc4cc(C(C)(C)C)cc(NS(C)(=O)=O)c4OC)c4ccccc34)n2)cc(C(=O)C2CC2)c1 [Example 50, N-(5-(tert-Butyl)-3-(3-(4-((2-((3-(cyclopropanecarbonyl)-5-methoxyphenyl)amino)-pyrimidin-4-yl)oxy)naphthalen-1-yl)ureido)-2-methoxyphenyl)methanesulfonamide] | 13800 |
| COCCOCCOCCOc1cc(Nc2nccc(Oc3ccc(NC(=O)Nc4cc(N5CCOCC5)ccc4OC)c4ccccc34)n2)cc(OC)c1 [Example 12, 1-(4-((2-((3-Methoxy-5-(2-(2-(2-methoxyethoxy)ethoxy)ethoxy)phenyl)amino)-pyrmidin-4-yl)oxy)naphthalen-1-yl)-3-(2-methoxy-5-morpholinophenyl)urea] | 11300 |

More lines, now with the values ahead:

| IC50 [nM] | SMILES |
| --- | --- |
| 1590 | COc1cc(Nc2cc(Oc3ccc(NC(=O)Nc4cc(C(C)(C)C)cc(NS(C)(=O)=O)c4OC)c4ccccc34)ccn2)cc(C(=O)NCCN2CCCCC2)c1 [83(e), 3-((4-((4-(3-(5-(tert-butyl)-2-methoxy-3-(methylsulfonamido)phenyl)ureido)naphthalen-1-yl)oxy)pyridin-2-yl)amino)-5-methoxy-N-(2-(piperidin-1-yl)ethyl)benzamide] |
| 51 | COc1cc(Nc2nccc(Oc3ccc(NC(=O)Nc4cc(C(C)(C)C)cc(NS(C)(=O)=O)c4OC)c4ccccc34)n2)cc(C(=O)NCCOCCOCCC(=O)O)c1 [Example 26] |
| 1460 | COCCOCCOCCOc1cc(Nc2nccc(Oc3ccc(NC(=O)Nc4cc(C(C)(C)C)cc5nc(C)oc45)c4ccccc34)n2)cc(OC)c1 [Example 64, 1-(5-(tert-Butyl)-2-methylbenzo[d]oxazol-7-yl)-3-(4-((2-((3-methoxy-5-(2-(2-(2-methoxy-ethoxy)ethoxy)ethoxy)phenyl)amino)pyrimidin-4-yl)oxy)naphthalen-1-yl)urea] |
| 1160 | COc1cc(Nc2cc(Oc3ccc(NC(=O)Nc4cc(C(C)(C)C)cc(NS(C)(=O)=O)c4OC)c4ccccc34)ccn2)cc(C(=O)NCCN2CCCN(C)CC2)c1 [Example 85(p), 3-[[4-[[4-[[5-tert-Butyl-3-(methanesulfonamido)-2-methoxyphenyl]-carbamoylamino]-1-naphthyl]oxy]-2-pyridyl]amino]-5-methoxy-N-[2-(4-methyl-1,4-diazean-1-yl)ethyl]benzamide] |
| 829 | COCCOCCOCCOc1cc(Nc2nccc(Oc3ccc(NC(=O)Nc4cc(C(C)(C)C)cc5[nH]c(=O)oc45)c4ccccc34)n2)cc(OC)c1 [Example 63, 1-(5-(tert-Butyl)-2-oxo-2,3-dihydrobenzo[d]oxazol-7-yl)-3-(4-((2-((3-methoxy-5-(2-(2-(2-methoxyethoxy)ethoxy)ethoxy)phenyl)amino)pyrimidin-4-yl)oxy)naphthalen-1-yl)urea] |
| 150 | COc1cc(Nc2nccc(Oc3ccc(NC(=O)Nc4cc(C(C)(C)C)cc(NS(C)(=O)=O)c4OC)c4ccccc34)n2)cc(OCCOCCOCCC(=O)O)c1 [Example 30, 3-(2-(2-(3-((4-((4-(3-(5-(tert-Butyl)-2-methoxy-3-(methylsulfonamido)phenyl)ureido)-naphthalen-1-yl)oxy)pyrimidin-2-yl)amino)-5-methoxyphenoxy)ethoxy)ethoxy)propanoic acid] |
| 878 | COCCOCCOCC[S+]([O-])c1cc(Nc2cc(Oc3ccc(NC(=O)Nc4cc(C(C)(C)C)cc(NS(C)(=O)=O)c4OC)c4ccccc34)ccn2)cc(OC)c1 (stereo not shown) [Example 85(x), 1-[5-tert-Butyl-3-(methanesulfonamido)-2-methoxyphenyl]-3-[4-[2-[3-methoxy-5-[2-[2-(2-methoxyethoxy)ethoxy]ethylsufinyl]anilino]pyridin-4-yl]oxy-1-naphthyl]urea] |
| 135 | COc1cc(Nc2nccc(Oc3ccc(NC(=O)Nc4cc(C(C)(C)C)cc(NS(C)(=O)=O)c4OC)c4ccccc34)n2)cc(OCCOCCC(=O)O)c1 [Example 31, 3-(2-(3-((4-((4-(3-(5-(tert-Butyl)-2-methoxy-3-(methylsulfonamido)phenyl)ureido)-naphthalen-1-yl)oxy)pyrimidin-2-yl)amino)-5-methoxyphenoxy)ethoxy)propanoic acid] |
| 437 | C#Cc1cc(Nc2nccc(Oc3ccc(NC(=O)Nc4cc(C(C)(C)C)cc(C(N)=O)c4OC)c4ccccc34)n2)cc(C(=O)NCCN2CCOCC2)c1 [85(g), 5-tert-Butyl-3-[[4-[2-[3-ethynyl-5-(2-morpholinoethylcarbamoyl)anilino]-pyrimidin-4-yl]oxy-1-naphthyl]carbamoylamino]-2-methoxy-benzamide] |
